{"source": "patent US11957699B2", "about": "“Composition comprising punicalagin for inhibiting PAR2 activity” (INDUSTRY-ACADEMIC COOPERATION FOUNDATION, YONSEI UNIVERSITY, priority 2018, dated 2024)", "key": {"[1]": {"test_system": "ICR mice with atopic dermatitis induced by DNFB", "assay": "Atopic dermatitis and pruritus induced by DNFB in mice", "assay_type": "in vivo", "details": "3 mg/kg intraperitoneally daily", "experimental": "In 12-week-old ICR mice, it was confirmed whether punicalagin inhibits pruritus caused by atopic dermatitis induced by 1-fluoro-2,4-dinitrobenzene (DNFB).\nSpecifically, as shown in panel A of FIG. 19, punicalagin (PG) was dissolved in physiological saline and intraperitoneally injected at 3 mg/kg daily for 17 days, and atopic dermatitis and pruritus were induced by treating 0.15% DNFB dissolved in acetone with a cotton swab on the back of the mice on the 10th, 13th, 20th, and 27th days."}, "[2]": {"test_system": "heart, liver, and lung tissues of lupus mice", "assay": "Histology (hematoxylin-eosin) of heart, liver and lung of lupus mice", "assay_type": "in vivo", "details": "3 mg/kg, 1 mg/kg, and 0.3 mg/kg; vs saline or methylprednisolone groups", "experimental": "In order to determine the toxicity of punicalagin, the effect of NIH3T3 cells on cell viability and the weight change of 8-week-old wild-type mice were evaluated, and the heart, liver, and lung were extracted from 30-week-old lupus mice and were histologically evaluated by performing hematoxylin-eosin staining."}, "PAR2": {"molecular_target": "T1, PAR2 (Homo sapiens, UniProt P55085)", "T1 sequence (P55085 26-397)": "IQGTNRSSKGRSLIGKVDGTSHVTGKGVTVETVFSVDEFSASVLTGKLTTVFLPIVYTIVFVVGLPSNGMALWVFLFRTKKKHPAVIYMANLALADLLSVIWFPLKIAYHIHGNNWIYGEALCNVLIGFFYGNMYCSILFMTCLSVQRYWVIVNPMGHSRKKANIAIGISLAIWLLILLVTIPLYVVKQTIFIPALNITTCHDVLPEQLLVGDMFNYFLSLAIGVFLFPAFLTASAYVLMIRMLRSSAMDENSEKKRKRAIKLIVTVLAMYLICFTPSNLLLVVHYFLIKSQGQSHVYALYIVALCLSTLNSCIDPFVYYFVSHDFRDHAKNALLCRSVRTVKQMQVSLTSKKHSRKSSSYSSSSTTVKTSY", "assay": "CaCC-dependent Cl- secretion (short-circuit current, Ussing chamber) by PAR2-AP in primary cultured human conjunctival epithelial cells", "assay_type": "cell-based", "design": "endogenous in cells", "details": "10 μM for 10 minutes, 100 μM PAR2-AP, after 100 μM amiloride", "experimental": "After primary cultured human conjunctival epithelial cells expressing PAR2 were cultured in a transwell, followed by removal of a culture medium on the side of an apical membrane, retinoic acid was added to the side of a basolateral membrane to differentiate for about 2 weeks (Invest Ophthalmol Vis Sci. 2013 Oct. 29; 54(10): 7143-52), and then, short-circuit currents were measured using a Ussing chamber. […] Next, by treating 10 μM forskolin, which is a an activator of the cystic fibrosis transmembrane conductance regulator (CFTR), the effect of promoting Cl^− secretion by the cystic fibrosis transmembrane conductance regulator (CFTR) channel was measured, and then, by treating 10 μM CFTRihn-172(5-[(4-carboxyphenyl)methylene]-2-thioxo-3-[(3-trifluoromethyl)phenyl-4-thiazolidinone]) (J Clin Invest. 2002 December; 110(11): 1651-8), which is a CFTR inhibitor, it was confirmed that Cl^− secretion by the CFTR channel was inhibited (panel A of FIG. 3).\nMeanwhile, Cl^− secretion by PAR1-AP was not measured as a result of the above experiment, and in order to confirm the inhibitory effect of Cl^− secretion during punicalagin treatment. […]"}, "[3]": {"test_system": "SD rats with acute pancreatitis induced by caerulein", "assay": "Acute pancreatitis induced by caerulein in rats", "assay_type": "in vivo", "experimental": "In 6-week-old SD rats, it was confirmed whether punicalagin has an effect of alleviating symptoms of acute pancreatitis induced by caerulein.\nSpecifically, […], and after 30 minutes, 40 μg/kg of caerulein, which is an acute pancreatitis-inducing substance, was intraperitoneally injected, and then, after 2 hours, the pancreas of the experimental animals was extracted and analyzed.\nFirst, the weight of the extracted pancreas was measured to determine whether punicalagin inhibits edema, which is a symptom of acute pancreatitis. As a result, it was confirmed that when 10 mg/kg punicalagin was administered to […], in which acute pancreatitis was induced by caerulein, the edema of the pancreas was inhibited by 95% or more (panel A of FIG. 8).\nNext, as a result of observing the nucleus and cytoplasm of the extracted pancreatic tissue with a microscope through H&E staining in order to confirm the damage to pancreatic cells by caerulein, it was confirmed that in the rats administered with caerulein, the distance between pancreatic cells was increased and the cells were damaged due to symptoms of acute pancreatitis."}, "[4]": {"test_system": "SD rats with colitis induced by TNBS", "assay": "Colitis induced by trinitrobenzene sulfonic acid (TNBS) in rats", "assay_type": "in vivo", "details": "1, 3 and 10 mg/kg intraperitoneally for 3 days", "experimental": "Specifically, 80 mg/kg TNBS was diluted in 50% ethanol and injected into the anus of rats, and punicalagin (1, 3, and 10 mg/kg) was intraperitoneally injected for 3 days. As control groups, a group which was intraperitoneally injected with PBS and treated with 50% ethanol only (n=3) and a group which was intraperitoneally injected with PBS and was treated only with TNBS (n=3) were established, and weight change was measured. After 3 days, the rats of each group were sacrificed, the colon was extracted to measure the length, and the spleen was extracted and weighed."}}}
{"smiles": "O=CC1OC(=O)c2cc(O)c(O)c(O)c2-c2c(cc(O)c(O)c2O)C(=O)OC1C1OC(=O)c2cc(O)c(O)c(O)c2-c2c(O)c(O)c3oc(=O)c4c(c(O)c(O)c5oc(=O)c2c3c54)-c2c(cc(O)c(O)c2O)C(=O)OCC1O", "note": "(stereo not drawn) [punicalagin, 1,2,3,11,12,13-hexahydroxy-5,10-dioxo-8-[3,4,5,11,17,18,19,22,23,34,35-undecahydroxy-8,14,26,31-tetraoxo-9,13,25,32-tetraoxaheptacyclo[25.8.0.0^2,7.0^15,20.0^21,30.0^24,29.0^28,33]pentatnaconta-1(35),2,4,6,15,17,19,21,23,27,29,33-dodecaen-10-yl]-5,7,8,10-tetrahydrodibenzo[f,h][1,4]dioxecin-7-carbaldehyde]", "values": [{"measurement": "suppression of the number of scratches caused by DNFB, measured for 30 minutes", "setting": "[1]", "value": "about 60%"}, {"measurement": "atopic dermatitis (skin inflammation)", "setting": "[1]; 0.15% DNFB", "value": "significantly reduced"}, {"measurement": "histological difference in heart, liver, and lung tissues", "setting": "[2]", "value": "no histological difference"}, {"measurement": "increase in CaCC-dependent Cl- secretion on PAR2 activation", "setting": "PAR2", "value": "inhibited"}, {"measurement": "inhibition of edema of the pancreas (pancreas weight)", "setting": "[3]; 10 mg/kg, 30 minutes before 40 μg/kg caerulein, pancreas extracted after 2 hours", "value": "≥ 95", "unit": "%"}, {"measurement": "edema of the pancreas and cell damage (H&E staining)", "setting": "[3]; pretreated at 3 mg/kg, then caerulein", "value": "strongly inhibited"}, {"measurement": "concentrations of inflammatory cytokines (INF-γ, IL-2, IL-4, IL-6, IL-β, TNF-α, IL-1β, etc.) increased by caerulein", "setting": "[3]; rat, in vivo", "value": "significantly decreased"}, {"measurement": "colon tissue damage caused by TNBS", "setting": "[4]", "value": "inhibited colon tissue damage caused by TNBS in a concentration-dependent manner"}, {"measurement": "concentrations of inflammatory cytokines (INF-γ, IL-2, IL-4, IL-6, IL-β, TNF-α, IL-1β, etc.) increased by TNBS", "setting": "[4]", "value": "significantly decreased"}, {"measurement": "colon length reduction by TNBS", "setting": "[4]; concentration-dependent", "value": "significantly inhibited"}, {"measurement": "weight increase of the spleen by TNBS", "setting": "[4]; concentration-dependent", "value": "significantly inhibited"}, {"measurement": "weight loss by TNBS", "setting": "[4]; concentration-dependent", "value": "significantly inhibited"}]}
